# Experimental data from patent publication US20240116845A1, “INDENE COMPOUNDS, PHARMACEUTICAL COMPOSITIONS THEREOF, AND THEIR THERAPEUTIC APPLICATIONS” (NucMito Pharmaceuticals Co., Ltd., priority 2021, published 2024).
# Legend:
# Type in all cases: cell-based
# [1] = system: alpha-smooth muscle actin (α-SMA); test: Inhibition of TGF-β induced expression of alpha-smooth muscle actin in CFSC cells (western blot); conditions: compound at 10 μM, TGF-β (10 ng/mL), 24 hours
# Experimental: The ability of a compound to inhibit the TGF-β induced expression of alpha-smooth muscle actin (α-SMA) was evaluated in CCl4-treated fat storing (CFSC) cells. α-SMA is considered as a reliable marker of hepatic stellate cell activation and a key biomarker for liver fibrosis.
# CFSC cells maintained in a DMEM medium supplemented with 10% fetal bovine serum were seeded to 12-well culture dishes and grown to a confluence of 60-70% the next day. Culture was changed to a serum-free DMEM medium and the cells were treated with the compound at 10 μM in the presence of TGF-β (10 ng/mL). The cells were incubated for another 24 hours. All culture was maintained at 37° C. in 5% carbon dioxide.
# An NP-40 lysate solution (50 mM Tris, pH 7.4, 150 mM NaCl, 1% NP-40) with EDTA free cocktail added was used to lyse the cells on ice for 30 min. The lysate was collected and centrifuged at 4° C. for 10 min at 12,000 rpm. The pellet was discarded and the supernatant was transferred to a new tube. The cell lysate was loaded with 5× loading buffer and boiled for 10 min, resolved by 10% SDS-polyacrylamide gel electrophoresis (SDS-PAGE), and transferred to a PVDF membrane. The membrane was blocked with 5% skim milk in Tris-buffered saline and TWEEN® 20 (TBST; 10 mM Tris-HCl, pH 8.0, 150 mM NaCl, 0.1% TWEEN® 20) for 1 h at room temperature and then incubated with α-SMA and β-actin antibodies overnight at 4° C. After washing twice with TBST, the membrane was probed with a […] anti-immunoglobulin (1:5000 dilution) for 1 h at room temperature. After two subsequent rinses in TBST, immunoreactive products were reacted with ECL and visualized by a UVP CHEMSTUDIO™ imaging system. The western blotting bands are quantitated using an ImageJ software. The percentage of inhibition was obtained by calculating the percentage decrease in the band intensity compared to the one treated with TGF-β only.
# The results are summarized in Table 1, where A represents a value no less than 80/% inhibition, B represents a value less than 80% but no less than 50% inhibition, C represents a value less than 50% but no less than 30% inhibition, and D represents a value less than 30% inhibition with a compound at 10 μM.
# SW480 (colon cancer) = test: Antiproliferative activity, CCK-8 cell viability; conditions: Homo sapiens, 72 h, read-out: Inhibition of Cancerous Cells, SW480
# Experimental: (§1) The antiproliferative activity of a compound was determined in the following cell lines: MDA-MB-231 (breast cancer), HepG2 (liver cancer), SW480 (colon cancer), B16F10 (malignant melanoma), A431 (epidermoid carcinoma), A549 (lung adenocarcinoma), and HeLa (cervical cancer). MDA-MB-231, HepG2, SW480, B16F10, and A431 cells were cultured in Dulbecco's modified Eagle's medium (DMEM) containing 10% fetal bovine serum (FBS). HeLa cells were cultured in MEM/EBSS (MEM) containing 10% FBS. A549 cells were maintained in Kaighn's modification of Ham's F-12 medium containing 10% FBS. The Cell Counting Kit-8 (CCK-8) assay was used to determine the cell viability of cells following treatment with the compound.
# (§2) Briefly, cells were seeded in a 96-well plate at a density of 2,000-5,000 cells/well. Following attachment, the cells were treated with the compound in media at a compound concentration of 3.3 μM, 10 μM, or 30 μM, or DMSO as a control. After the cells were incubated at 37° C. for 72 h, the CCK-8 solution (10 μL) was added to each well. After incubation at 37° C. for 4 h, the absorbance value of each well was determined using a multi-well plate reader at 450 nm. The percentage of cell viability was determined with respect to the DMSO-treated cells. The results were summarized in Table 2-4 below, wherein A represents no less than 50% inhibition of cell growth; B represents less than 50% but no less than 30% inhibition of cell growth; C represents less than 30% inhibition of cell growth.
# [2] = system: B16F10 (malignant melanoma); test: Antiproliferative activity, CCK-8 cell viability; conditions: Mus musculus, B16-F10, 72 h, read-out: Inhibition of Cancerous Cells, B16F10
# Experimental: as §1, §2
# [3] = system: A549 (lung adenocarcinoma); test: Antiproliferative activity, CCK-8 cell viability; conditions: Homo sapiens, 72 h, read-out: Inhibition of Cancerous Cells, A549
# Experimental: as §1, §2
# HeLa (cervical cancer) = test: Antiproliferative activity, CCK-8 cell viability; conditions: Homo sapiens, 72 h, read-out: Inhibition of Cancerous Cells, HELA
# Experimental: as §1, §2
# HepG2 (liver cancer) = test: Antiproliferative activity, CCK-8 cell viability; conditions: Homo sapiens, 72 h, read-out: Inhibition of Cancerous Cells, HepG2
# Experimental: as §1, §2
# [4] = system: MDA-MB-231 (breast cancer); test: Antiproliferative activity, CCK-8 cell viability; conditions: Homo sapiens, 72 h, read-out: Inhibition of Cancerous Cells, MDA-MB-231
# Experimental: as §1, §2
# [5] = compound concentration of 3.3 μM
# [6] = compound concentration of 10 μM
# [7] = compound concentration of 30 μM
smiles,measurement,setting,value
"CC(C)CC1=C(CC(=O)O)c2cc(F)ccc2/C1=C\c1ccc(Oc2ccc(F)cc2)cc1 [Compound D8, 2-[(1Z)-5-Fluoro-1-{[4-(4-fluorophenoxy)phenyl]methylidene}-2-(2-methyl-propyl)-1H-inden-3-yl]acetic acid]",inhibition at 10 µM,[1],≥ 80%
"COc1ccc2c(c1)C(CC(=O)O)=C(C)/C2=C/c1ccc(Oc2ccc(F)cc2)cc1 [Compound D10, 2-[(1Z)-5-Methoxy-2-methyl-1-({4-[4-fluorophenoxy]phenyl}methylidene)-1H-inden-3-yl]acetic acid]",inhibition at 10 µM,[1],≥ 80%
"COc1ccc2c(c1)C(CC(=O)O)=C(C)/C2=C/c1ccc(Oc2ccccc2)cc1 [Compound D11, 2-[(1Z)-5-Methoxy-2-methyl-1-[(4-phenoxyphenyl)methylidene]-1H-inden-3-yl]acetic acid]",inhibition at 10 µM,[1],≥ 80%
"CC1=C(CC(=O)O)c2cc(C(C)(C)C)ccc2/C1=C\c1ccc(Oc2ccc(F)cc2)cc1 [Compound D17, 2-[(1Z)-5-Tert-butyl-2-methyl-1-({4-[4-fluorophenoxy]phenyl}methylidene)-1H-inden-3-yl]acetic acid]",inhibition at 10 µM,[1],≥ 80%
"CC1=C(CC(=O)O)c2cc(F)ccc2/C1=C\c1cccc(Oc2ccccc2)c1 [Compound D18, (Z)-2-(5-Fluoro-2-methyl-1-(3-phenoxybenzylidene)-1H-inden-3-yl)acetic acid]",inhibition at 10 µM,[1],≥ 80%
"CC1=C(CC(=O)O)c2cc(F)ccc2/C1=C\c1cccc(Oc2ccc(C#N)cc2)c1 [Compound D24, 2-[(1Z)-5-Fluoro-2-methyl-1-({3-[4-cyanophenoxy]phenyl}methylidene)-1H-inden-3-yl]acetic acid]",inhibition at 10 µM,[1],≥ 80%
"CC1=C(CC(=O)O)c2cc(F)ccc2/C1=C\c1cccc(Oc2ccc(C(F)(F)F)cc2)c1 [Compound D26, 2-[(1Z)-5-Fluoro-2-methyl-1-({3-[4-trifluoromethylphenoxy]phenyl}-methylidene)-1H-inden-3-yl]acetic acid]",inhibition at 10 µM,[1],≥ 80%
same,inhibition at 3.3 µM,SW480 (colon cancer); [5],< 30%
same,inhibition at 10 µM,SW480 (colon cancer); [6],< 30%
same,inhibition at 30 µM,SW480 (colon cancer); [7],≥ 50%
same,inhibition at 3.3 µM,[2]; [5],30 to 50%
same,inhibition at 10 µM,[2]; [6],≥ 50%
same,inhibition at 30 µM,[2]; [7],≥ 50%
same,inhibition at 3.3 µM,[3]; [5],30 to 50%
same,inhibition at 10 µM,[3]; [6],30 to 50%
same,inhibition at 30 µM,[3]; [7],≥ 50%
same,inhibition at 3.3 µM,HeLa (cervical cancer); [5],30 to 50%
same,inhibition at 10 µM,HeLa (cervical cancer); [6],≥ 50%
same,inhibition at 30 µM,HeLa (cervical cancer); [7],≥ 50%
same,inhibition at 3.3 µM,HepG2 (liver cancer); [5],30 to 50%
same,inhibition at 10 µM,HepG2 (liver cancer); [6],≥ 50%
same,inhibition at 30 µM,HepG2 (liver cancer); [7],≥ 50%
same,inhibition at 3.3 µM,[4]; [5],≥ 50%
same,inhibition at 10 µM,[4]; [6],≥ 50%
same,inhibition at 30 µM,[4]; [7],≥ 50%
"COc1ccc2c(c1)/C(=C\c1ccc(Oc3ccccc3)cc1)C(C)=C2CC(=O)O [Compound D29, 2-[(1Z)-6-Methoxy-1-(4-(phenoxy)benzylidene)-2-methyl-1H-inden-3-yl]-acetic acid]",inhibition at 10 µM,[1],50 to 80%
"COc1ccc2c(c1)/C(=C\c1cccc(Oc3ccccc3)c1)C(C)=C2CC(=O)O [Compound D35, 2-[(1Z)-6-Methoxy-1-(3-(phenoxy)benzylidene)-2-methyl-1H-inden-3-yl]-acetic acid]",inhibition at 10 µM,[1],< 30%
"CC1=C(CC(=O)O)c2cc(F)ccc2/C1=C\c1cccc(N(C)c2ccccc2)c1 [Compound D37, 2-[(1Z)-5-Fluoro-2-methyl-1-({3-[methyl(phenyl)amino]phenyl}methylidene)-1H-inden-3-yl]acetic acid]",inhibition at 10 µM,[1],≥ 80%
"CC1=C(CC(=O)O)c2cc(F)ccc2/C1=C\c1ccc(C2=CCCC2)cc1 [Compound D39, (Z)-2-(1-(4-(Cyclopent-1-en-1-yl)benzylidene)-5-fluoro-2-methyl-1H-inden-3-yl)acetic acid]",inhibition at 10 µM,[1],50 to 80%
"CC1=C(CC(=O)NO)c2cc(F)ccc2/C1=C\c1ccc(C2=CCCC2)cc1 [Compound D40, (Z)-2-(1-(4-(Cyclopent-1-en-1-yl)benzylidene)-5-fluoro-2-methyl-1H-inden-3-yl)-N-hydroxyacetamide]",inhibition at 10 µM,[1],50 to 80%
"CC1=C(CC(N)=O)c2cc(F)ccc2/C1=C\c1ccc(C(C)(C)C)cc1 [Compound D41, (Z)-2-(1-(4-(Tert-butyl)benZylidene)-5-fluoro-2-methyl-1H-inden-3-yl)acetamide]",inhibition at 10 µM,[1],≥ 80%
"CC1=C(CC(=O)O)c2cc(F)ccc2/C1=C/c1ccc(Oc2ccc(F)cc2)cc1 [Compound E2, 2-[(1E)-5-Fluoro-2-methyl-1-({4-[4-fluorophenoxy]phenyl}methylidene)-1H-inden-3-yl]acetic acid]",inhibition at 10 µM,[1],≥ 80%
"CC1=C(CC(=O)O)c2cc(F)ccc2/C1=C/c1ccc(Oc2ccccc2)cc1 [Compound E3, 2-[(1E)-5-Fluoro-2-methyl-1-[(4-phenoxyphenyl)methylidene]-1H-inden-3-yl]acetic acid]",inhibition at 10 µM,[1],≥ 80%
"CC1=C(CC(=O)NO)c2cc(F)ccc2/C1=C/c1ccc(C(C)(C)C)cc1 [Compound E6, (E)-2-(1-(4-(Tert-butyl)benzylidene)-5-fluoro-2-methyl-1H-inden-3-yl)-N-hydroxyacetamide]",inhibition at 10 µM,[1],50 to 80%
